Key:
HaCaT keratinocytes = assay: Calcium imaging (fura-2-am) in HaCaT keratinocytes; assay type: cell-based, human; settings: for calcium influx: HaCaT cells
Experimental: The human keratinocyte cell line HaCaT, the neuroblastoma cell line SH-SY5Y and the placental cell line JEG-3 were from CLS Cell Lines Service (Heidelberg, Germany) and cultured in Dulbecco's modified essential medium (DMEM; Invitrogen) containing 10% fetal calf serum (FCS; PAA, Pasching, Austria) at 37 °C in a humidified atmosphere with 5% CO2. For double fluorescence stainings the cells were seeded in a four-field chamber slides (Thermo Fisher Scientific GmbH; 1 ×10^5 cells/ml). For calcium imaging experiments, cells were seeded on polylysin (Sigma-Aldrich, Munich, Germany) coated cover slips at a density of 1.5 -2x 10^5. After isolation of human primary keratinocytes (hPK) from skin samples, the cells were incubated for 3 days with calcium (2 mM), amarogentin (100 μM) or diphenidol (100 μM) before RNA isolation and determination of the differentiation markers. Intracellular Ca^2+ concentration measurements in single cells were carried out using the fluorescence indicator fura-2-am (Invitrogen). Cells were washed with a buffer containing 130 mM NaCl, 5 mM KCI, 10 mM HEPES, 10 mM Glucose and 1 mM CaCl2 adjusted to pH 7.4 and loaded with 2 μM fura-2-am and 0.04% Pluronic F-127 (Invitrogen) for 30 min. After rinsing twice, cells were allowed to de-esterify fura-2-am for 30 min. Measurements were performed with a monochromator-based imaging system attached to an inverted microscope (Axiovert S100, Zeiss). Fluorescence was excited at 340 and 380 nm and emission measured at 510 nm. After 60s, cells were stimulated with various concentrations of diphenidol or amarogentin, 100 μM PTC or the respective solvent control. […] receptor inhibition was performed by pre-incubation of JEG-3 cells for 1h with the […] antagonist probenecid (1 mM) before PTC stimulation. After correction of background fluorescence, the fluorescence ratio was calculated using Axiovision software.

[1] = tested on: SH-SY5Y neuroblastoma cells; assay: Calcium imaging (fura-2-am) in SH-SY5Y neuroblastoma cells; assay type: cell-based, human; settings: 100 µM diphenidol, significant, maximum stated for all cell lines (Figure 8)
Experimental: (§1) The human keratinocyte cell line HaCaT, the neuroblastoma cell line SH-SY5Y and the placental cell line JEG-3 were from CLS Cell Lines Service (Heidelberg, Germany) and cultured in Dulbecco's modified essential medium (DMEM; Invitrogen) containing 10% fetal calf serum (FCS; PAA, Pasching, Austria) at 37 °C in a humidified atmosphere with 5% CO2. For double fluorescence stainings the cells were seeded in a four-field chamber slides (Thermo Fisher Scientific GmbH; 1 ×10^5 cells/ml). For calcium imaging experiments, cells were seeded on polylysin (Sigma-Aldrich, Munich, Germany) coated cover slips at a density of 1.5 -2x 10^5. After isolation of human primary keratinocytes (hPK) from skin samples, the cells were incubated for 3 days with calcium (2 mM), amarogentin (100 μM) or diphenidol (100 μM) before RNA isolation and determination of the differentiation markers. Intracellular Ca^2+ concentration measurements in single cells were carried out using the fluorescence indicator fura-2-am (Invitrogen). Cells were washed with a buffer containing 130 mM NaCl, 5 mM KCI, 10 mM HEPES, 10 mM Glucose and 1 mM CaCl2 adjusted to pH 7.4 and loaded with 2 μM fura-2-am and 0.04% Pluronic F-127 (Invitrogen) for 30 min. […] Fluorescence was excited at 340 and 380 nm and emission measured at 510 nm. […] After correction of background fluorescence, the fluorescence ratio was calculated using Axiovision software.

JEG-3 placental cells = assay: Calcium imaging (fura-2-am) in JEG-3 placental cells; assay type: cell-based, human; settings: 100 µM diphenidol, significant, maximum stated for all cell lines (Figure 8)
Experimental: as §1

[2] = tested on: human primary keratinocytes (hPKs); assay: Differentiation marker expression in human primary keratinocytes (RT-PCR); assay type: cell-based; settings: 3 days, amarogentin 100 µM, diphenidol 100 µM or calcium 2 mM, vs untreated control (Figure 12)
Experimental: The human keratinocyte cell line HaCaT, the neuroblastoma cell line SH-SY5Y and the placental cell line JEG-3 were from CLS Cell Lines Service (Heidelberg, Germany) and cultured in Dulbecco's modified essential medium (DMEM; Invitrogen) containing 10% fetal calf serum (FCS; PAA, Pasching, Austria) at 37 °C in a humidified atmosphere with 5% CO2. For double fluorescence stainings the cells were seeded in a four-field chamber slides (Thermo Fisher Scientific GmbH; 1 ×10^5 cells/ml). For calcium imaging experiments, cells were seeded on polylysin (Sigma-Aldrich, Munich, Germany) coated cover slips at a density of 1.5 -2x 10^5. After isolation of human primary keratinocytes (hPK) from skin samples, the cells were incubated for 3 days with calcium (2 mM), amarogentin (100 µM) or diphenidol (100 µM) before RNA isolation and determination of the differentiation markers. Reverse transcription PCR was performed as described (Muller et al.,2008). In brief, total RNA was isolated using the Trizol reagent (Invitrogen) according to the manusfacturer's instruction. […] The PCR primers (20 pmol each) used to amplify keratin 10 (KRT10), INV, TGM and ß-actine were already published (Muller et al., 2008). ß-actine was used as internal loading control. After gel electrophoresis quantification was archived with ImageJ software.

LAD-2 human mast cells [3] = assay: TNF-α release from SP-stimulated LAD-2 mast cells (ELISA); assay type: cell-based; settings: SP 2 µM, 24 h, 30 min pre-incubation, amarogentin 136 µM, diphenidol 136 µM, azelastine 24 µM (Figure 14B)
Experimental: (§2) LAD-2 human mast cells (obtained from Dr. A. Kirshenbaum NIH) were cultured in serum-free media (StemPro-34, Gibco, Germany) supplemented with 2mM L-glutamine and 100 ng/ml rhSCF (recombinant human stem cell factor; Cell signaling technologies). The human keratinocyte cell line HaCaT was cultured in Dulbecco's modified essential medium (DMEM; Invitrogen) containing 10% fetal calf serum (FCS; PAA, Pasching, Austria) at 37 °C in a humidified atmosphere with 5% CO2. LAD-2 cells were washed with PBS and resuspended in complete medium. LAD-2 cells (2x10^5 cells /400 µl/well) were plated in 48 well flat bottom Falcon cell culture plates from Becton Dickinson and then stimulated with SP (2 µM, Sigma-Aldrich) for 1 or 24 h. Some cells were pre-incubated for 30 min with amarogentin (136 µM, Phytolab), diphenidol (136 µM, Santa Cruz) or azelastine (24 µM, Sigma) as indicated. The supernatants were collected for further assays. TNF-α, IL-6, IL-8 and MMP-1 release into the supernatant fluid 24 h after cell stimulation (either LAD-2 oder HaCaT cells) were measured by Enzyme-Linked Immunosorbent Assay (ELISA) using a commercial kit from R&D Systems according to the manual instructions.

LAD-2 cells = assay type: cell-based, human
Experimental: (§4) The method is based on the bioluminescence measurement of ATP that is present in metabolically active cells. Luciferase catalyzes the formation of light from ATP and luciferin. The emitted light intensity is directly proportional to the ATP concentration and is measured using a luminometer (Sirius HT; MWG).

LAD-2 human mast cells [4] = assay: Degranulation assay: histamine release from SP-stimulated LAD-2 mast cells (ELISA); assay type: cell-based; settings: SP 2 µM, 1 h, 30 min pre-incubation, amarogentin 136 µM, azelastine 24 µM (Figure 14A)
Experimental: as §2, with “assays. Mast cell degranulation was assessed by measuring histamine in” for “assays. TNF-α, IL-6, IL-8 and MMP-1 release into”, “fluid 1” for “fluid 24”, “stimulation with SP (2 µM). Histamine levels” for “stimulation (either LAD-2 oder HaCaT cells)”, “were assayed” for “were measured by Enzyme-Linked Immunosorbent Assay (ELISA)”, “a Histamine ELISA” for “a commercial kit”, “from IBL international.” for “from R&D Systems according to the manual instructions.”

[5] = tested on: keratinocyte cell line HaCaT; assay: IL-8 and MMP-1 release from HaCaT stimulated with histamine and TNF-α (ELISA); assay type: cell-based, human; settings: histamine + TNF-α (25 ng/ml), 24 h, amarogentin 136 µM 30 min pre-incubation (Figure 15A)
Experimental: (§3) The Keratinocyte cell line HaCaT (2x10^5 cells /400 µl/well) were plated in 48 well flat bottom Falcon cell culture plates from Becton Dickinson and then stimulated with histamine (100 µl) and TNF-α (25 ng/ml) or IFNγ (200U/ml) for 24 h. Some cells were pre-incubated for 30 min with amarogentin (136 µM, Phytolab), diphenidol (136 µM, Santa Cruz) or azelastine (24 µM, Sigma) as indicated. The supernatants were collected for further assays.
TNF-α, IL-6, IL-8 and MMP-1 release into the supernatant fluid 24 h after cell stimulation (either LAD-2 oder HaCaT cells) were measured by Enzyme-Linked Immunosorbent Assay (ELISA) using a commercial kit from R&D Systems according to the manual instructions.

[6] = tested on: keratinocyte cell line HaCaT; assay: IL-6 and MMP-1 release from HaCaT stimulated with histamine and IFN-γ (ELISA); assay type: cell-based, human; settings: histamine + IFN-γ (200U/ml), 24 h, amarogentin 136 µM, azelastine 24 µM (Figure 15B)
Experimental: as §3, with “assays. TNF-α, IL-6, IL-8 and MMP-1 release into the supernatant fluid 24 h after cell stimulation (either LAD-2 oder HaCaT cells) were measured by Enzyme-Linked Immunosorbent Assay (ELISA) using a commercial kit from R&D Systems according to the manual instructions.” for “assays.”

T2R38 = target: T1, T2R38 (Homo sapiens, UniProt P59533, A49P/I296V); assay: PTC-induced calcium influx in taster cell line JEG-3 and its inhibition by probenecid; assay type: cell-based
T1 construct: endogenous in cells; host or cells: JEG-3 (human placental cell line)
T1 sequence (P59533 1-333 A49P/I296V): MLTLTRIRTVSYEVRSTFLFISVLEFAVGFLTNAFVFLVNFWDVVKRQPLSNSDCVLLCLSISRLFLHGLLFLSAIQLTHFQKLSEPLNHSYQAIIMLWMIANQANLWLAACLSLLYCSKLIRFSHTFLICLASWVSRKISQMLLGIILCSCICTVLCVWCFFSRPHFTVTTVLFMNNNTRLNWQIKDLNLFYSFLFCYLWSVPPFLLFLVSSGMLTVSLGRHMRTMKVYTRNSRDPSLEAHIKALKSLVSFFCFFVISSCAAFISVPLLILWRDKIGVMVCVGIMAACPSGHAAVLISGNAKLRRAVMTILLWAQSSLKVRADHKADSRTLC
Experimental: Intracellular Ca^2+ concentration measurements in single cells were carried out using the fluorescence indicator fura-2-am (Invitrogen). Cells were washed with a buffer containing 130 mM NaCl, 5 mM KCI, 10 mM HEPES, 10 mM Glucose and 1 mM CaCl2 adjusted to pH 7.4 and loaded with 2 µM fura-2-am and 0.04% Pluronic F-127 (Invitrogen) for 30 min. After rinsing twice, cells were allowed to de-esterify fura-2-am for 30 min. Measurements were performed with a monochromator-based imaging system attached to an inverted microscope (Axiovert S100, Zeiss). Fluorescence was excited at 340 and 380 nm and emission measured at 510 nm. After 60s, cells were stimulated with various concentrations of diphenidol or amarogentin, 100 µM PTC or the respective solvent control. T2R38 receptor inhibition was performed by pre-incubation of JEG-3 cells for 1h with the T2R38 antagonist probenecid (1 mM) before PTC stimulation. After correction of background fluorescence, the fluorescence ratio was calculated using Axiovision software.

Experimental for HaCaT cells: as §4

Row | expression of the differentiation marker keratin 10, involucrin und transglutaminase [2] | Compound | secretion of TNF-α (LAD-2 human mast cells [3]) | cytotoxicity (HaCaT cells) | cytotoxicity (LAD-2 cells) | histamine release (LAD-2 human mast cells [4]) | IL-6 production [6] | MMP-1 production [6] | also measured
1 | increased | OC(CCCN1CCCCC1)(c1ccccc1)c1ccccc1 [diphenidol] | blocked the secretion of TNF-α | no cytotoxicity | – | – | – | – | calcium influx compared to the solvent control (HaCaT keratinocytes; 100 µM diphenidol, HaCaT, significant, maximum stated for all cell lines (Figure 8)): up to 7 fold; calcium influx (HaCaT keratinocytes; diphenidol 30 µM, fura-2 ratio before/after stimulation vs solvent (Figure 11)): significant calcium influx; calcium influx compared to the solvent control [1]: up to 7 fold; calcium influx compared to the solvent control (JEG-3 placental cells): up to 7 fold
2 | increased | amarogentin | blocked the secretion of TNF-α | no cytotoxicity | no cytotoxicity | inhibits histamine release | decreased | decreased | calcium influx (HaCaT keratinocytes; 100 µM amarogentin, vs 0.1% EtOH (Figure 11)): significant calcium influx; release of IL-8 [5]: reduces the release; release of MMP-1 [5]: reduces the release
3 | – | CN1CCCC(n2nc(Cc3ccc(Cl)cc3)c3ccccc3c2=O)CC1 (stereo not drawn) [azelastine] | blocked the secretion of TNF-α | – | no cytotoxicity | inhibits histamine release | decreased | decreased | –
4 | – | CCCN(CCC)S(=O)(=O)c1ccc(C(=O)O)cc1 [probenecid] | – | – | – | – | – | – | PTC-induced calcium currents (T2R38; 1h pre-incubation with probenecid (1 mM), then PTC 100 µM, JEG-3 cells): reduces PTC-induced calcium currents to solvent level
5 | – | NC(=S)Nc1ccccc1 [PTC, Phenylthiocarbamid] | – | – | – | – | – | – | calcium influx (T2R38; PTC 100 µM, JEG-3 cells (PAV taster), vs DMSO 0.05% (Figure 10)): induced calcium influx

Reference: patent EP2865421A1, “Bitter taste receptor agonists for topical use” (Albert-Ludwigs-Universität Freiburg, priority 2013, dated 2015)
